Laboratory results as given in US20250059207A1, “6,6-FUSED HETEROCYCLIC COMPOUNDS AS METTL3 INHIBITORS” (858 Therapeutics, Inc., priority 2021, published 2025).

Each molecule was assayed on MOLM-13 cells (assay: Viability assay in MOLM-13 cells (CellTiter-Glo 2.0)). Settings: Homo sapiens, MOLM-13, 72 h, read-out: MOLM-13 IC50 (cell viability).
Type: cell-based, human
Protocol: Effects of test compounds on the proliferation and viability of human AML cells was evaluated using the MOLM-13 cell line (AddexBio Technologies cat. no. C0003003). […] Test compounds or controls (Bortezomib or DMSO) diluted in 2% DMSO/media were added to each well for final concentrations of 0.2% DMSO and 0.1-1 μM Bortezomib. The cells were incubated for 72 hours at 37° C. and 5% CO2. At the end of the 72 hour incubation, plates were removed from the incubator, cooled to room temperature and equal volume of CellTiter-Glo 2.0 (Promega) added to each well. After mixing and incubating the plate at room temperature for 10 minutes the luminescence was read using a plate reader. […] Concentration-response-curves and IC50 values were generated using Collaborative Drug Discovery software.

Structure (SMILES)	IC50 [µM]
O=c1c2cncc(N3CC4(CCOC4)C3)c2ccn1Cc1cn2cc(CNCC34CC(F)(C3)C4)ccc2n1 [Compound 151, 2-((6-((((3-fluorobicyclo[1.1.1]pentan-1-yl)methyl)amino)methyl)imidazo[1,2-a]pyridin-2-yl)methyl)-5-(6-oxa-2-azaspiro[3.4]octan-2-yl)-2,7-naphthyridin-1(2H)-one]	< 1

Same assay, conditions: MOLM-13 human AML cells, 72 hours, CellTiter-Glo 2.0; read-out: MOLM-13 IC50 (cell viability)

IC50 [µM]	Structure (SMILES)
> 10	O=c1c2cncc(N3CC4(CCOCC4)C3)c2ccn1Cc1cn2cc(CN3CCC4(CC3)CC4(F)F)ccc2n1 [Compound 141, 2-{[6-({1,1-difluoro-6-azaspiro[2.5]octan-6-yl}methyl)imidazo[1,2-a]pyridin-2-yl]methyl}-5-{7-oxa-2-azaspiro[3.5]nonan-2-yl}-1,2-dihydro-2,7-naphthyridin-1-one]
1 to 10	O=c1c2cncc(N3CC4(C3)CC(F)(F)C4)c2ccn1Cc1cn2cc(CNCC3CC(F)C3)ccc2n1 (stereo not drawn) [Compound 142, 5-{6,6-difluoro-2-azaspiro[3.3]heptan-2-yl}-2-{[6-({[(3-fluorocyclobutyl)methyl]amino}methyl)imidazo[1,2-a]pyridin-2-yl]methyl}-1,2-dihydro-2,7-naphthyridin-1-one]
1 to 10	O=c1c2cncc(N3CC4(COC4)C3)c2ccn1Cc1cn2cc(CNCC3CC(F)C3)ccc2n1 (stereo not drawn) [Compound 143, 2-{[6-({[(3-fluorocyclobutyl)methyl]amino}methyl)imidazo[1,2-a]pyridin-2-yl]methyl}-5-{2-oxa-6-azaspiro[3.3]heptan-6-yl}-1,2-dihydro-2,7-naphthyridin-1-one]
1 to 10	O=c1c2cncc(N3CC4(CCCOC4)C3)c2ccn1Cc1cn2cc(CNCC3CC(F)C3)ccc2n1 (stereo not drawn) [Compound 145, 2-{[6-({[(3-fluorocyclobutyl)methyl]amino}methyl)imidazo[1,2-a]pyridin-2-yl]methyl}-5-{6-oxa-2-azaspiro[3.5]nonan-2-yl}-1,2-dihydro-2,7-naphthyridin-1-one]
1 to 10	O=c1c2cncc(N3CC4(CCC(F)(F)CC4)C3)c2ccn1Cc1cn2cc(CNCC3CC(F)C3)ccc2n1 (stereo not drawn) [Compound 146, 5-{7,7-difluoro-2-azaspiro[3.5]nonan-2-yl}-2-{[6-({[(3-fluorocyclobutyl)methyl]amino}methyl)imidazo[1,2-a]pyridin-2-yl]methyl}-1,2-dihydro-2,7-naphthyridin-1-one]
1 to 10	O=c1c2cncc(N3CCC4(C3)CC(F)(F)C4)c2ccn1Cc1cn2cc(CNCC3CC(F)C3)ccc2n1 (stereo not drawn) [Compound 147, 5-{2,2-difluoro-6-azaspiro[3.4]octan-6-yl}-2-{[6-({[(3-fluorocyclobutyl)methyl]amino}methyl)imidazo[1,2-a]pyridin-2-yl]methyl}-1,2-dihydro-2,7-naphthyridin-1-one]
1 to 10	O=c1c2cncc(N3CC(N4CCC(F)CC4)C3)c2ccn1Cc1cn2cc(CNCC3CC(F)C3)ccc2n1 (stereo not drawn) [Compound 148, 2-{[6-({[(3-fluorocyclobutyl)methyl]amino}methyl)imidazo[1,2-a]pyridin-2-yl]methyl}-5-[3-(4-fluoropiperidin-1-yl)azetidin-1-yl]-1,2-dihydro-2,7-naphthyridin-1-one]
1 to 10	O=c1c2cncc(N3CC(c4ccncc4)C3)c2ccn1Cc1cn2cc(CNCC3CC(F)C3)ccc2n1 (stereo not drawn) [Compound 149, 2-{[6-({[(3-fluorocyclobutyl)methyl]amino}methyl)imidazo[1,2-a]pyridin-2-yl]methyl}-5-[3-(pyridin-4-yl)azetidin-1-yl]-1,2-dihyro-2,7-naphthyridin-1-one]
1 to 10	O=c1c2cncc(N3CC(c4ccc(F)cc4)C3)c2ccn1Cc1cn2cc(CNCC3CC(F)C3)ccc2n1 (stereo not drawn) [Compound 150, 2-{[6-({[(3-fluorocyclobutyl)methyl]amino}methyl)imidazo[1,2-a]pyridin-2-yl]methyl}-5-[3-(4-fluorophenyl)azetidin-1-yl]-1,2-dihydro-2,7-naphthyridin-1-one]
< 1	O=c1c2cncc(N3CC4(CCCOC4)C3)c2ccn1Cc1cn2cc(CNCC34CC(F)(C3)C4)ccc2n1 [Compound 153, 2-[(6-{[({3-fluorobicyclo[1.1.1]pentan-1-yl}methyl)amino]methyl}imidazo[1,2-a]pyridin-2-yl)methyl]-5-{6-oxa-2-azaspiro[3.5]nonan-2-yl}-1,2-dihydro-2,7-naphthyridin-1-one]
1 to 10	O=c1c2cncc(-c3ccccc3F)c2ccn1Cc1cn2cc(CNCC34CC(F)(C3)C4)ccc2n1 [Compound 154, 2-[(6-{[({3-fluorobicyclo[1.1.1]pentan-1-yl}methyl)amino]methyl}imidazo[1,2-a]pyridin-2-yl)methyl]-5-(2-fluorophenyl)-1,2-dihydro-2,7-naphthyridin-1-one]
1 to 10	NC(=O)c1ccc(-c2cncc3c(=O)n(Cc4cn5cc(CNCC67CC(F)(C6)C7)ccc5n4)ccc23)cc1 [Compound 155, 4-{7-[(6-{[({3-fluorobicyclo[1.1.1]pentan-1-yl}methyl)amino]methyl}imidazo[1,2-a]pyridin-2-yl)methyl]-8-oxo-7,8-dihydro-2,7-naphthyridin-4-yl}benzamide]
> 10	O=c1c2cncc(C3CCC3)c2ccn1Cc1cn2cc(CNCC3CC(F)C3)ccc2n1 (stereo not drawn) [Compound 156, 5-cyclobutyl-2-{[6-({[(3-fluorocyclobutyl)methyl]amino}methyl)imidazo[1,2-a]pyridin-2-yl]methyl}-1,2-dihydro-2,7-naphthyridin-1-one]
1 to 10	O=c1c2cncc(N3CC4(COC4)C3)c2cnn1Cc1cn2cc(CNCC34CC(F)(C3)C4)ccc2n1 [Compound 157, 3-[(6-{[({3-fluorobicyclo[1.1.1]pentan-1-yl}methyl)amino]methyl}imidazo[1,2-a]pyridin-2-yl)methyl]-8-{2-oxa-6-azaspiro[3.3]heptan-6-yl}pyrido[3,4-d]pyridazin-4-one]
